According to patent publication US20170107179A1 (Tetraphase Pharmaceuticals, Inc., priority 2010, published 2017):
Converted amounts (≈) assume the structure as drawn. Like-named read-outs stand apart in the source and are kept apart here.

Key:
[1] = test system: S. pneumoniae strain SP514; assay: Immunocompetent CD-1 murine lung infection model; type: in vivo; details: immunocompetent CD-1 mice, SP514, orally dosed 30 mg/kg at 5, 24 and 36 hours post-infection (FIG. 2)
Protocol: Compound 102 was tested in an immunocompetent CD-1 murine model of lung infection challenged with S. pneumoniae strain SP514.

[2] = test system: Gram-negative and Gram-positive organisms (clinical isolates); assay: Broth microdilution MIC against clinical isolates (CLSI M7-A8), Table 9; type: cell-based
S. maltophila = assay: Broth microdilution MIC by tetracycline resistance phenotype (Table 10); type: cell-based; design: unit not given beside the values
S. pneumoniae SP106 = type: cell-based; details: SP106, plates containing compound at 5× the MIC, 5% sheep blood
[3] = Preliminary pharmacokinetics in Sprague Dawley rats; details: rat, in vivo, po; Sprague Dawley rats (n = 3), initial preliminary testing; read-out: oral bioavailability (% F)
E. coli DH10B EC971 LacZ = assay: MIC, E. coli DH10B recombinantly expressing control gene; details: E. coli DH10B, arabinose-induced, ampicillin in medium
Gram-positive pathogens = assay: Broth microdilution MIC, respiratory/skin pathogens (Table 12)
[4] = test system: E. coli DH10B EC1153 Tet(X); assay: MIC, E. coli DH10B recombinantly expressing tetracycline-resistance gene; details: arabinose-induced, ampicillin in medium
E. coli DH10B EC969 TetM = assay: as above; details: arabinose-induced, ampicillin in medium
[5] = test system: E. coli DH10B EC1082 TetA; assay: as above; details: arabinose-induced, ampicillin in medium
[6] = test system: E. coli DH10B EC1083 TetB; assay: as above; details: arabinose-induced, ampicillin in medium

For `CN(C)[C@@H]1C(O)=C(C(N)=O)C(=O)[C@@]2(O)C(O)=C3C(=O)c4c(O)c5c(c(F)c4C[C@H]3C[C@@H]12)CN(C(C)(C)C)C5` [Compound 102], the “log10 reduction in CFU versus the 48 hour untreated control” value [1] was 6.14+/−0.66 log10, the “MICs against tetracycline resistant isolates relative to tetracycline susceptible isolates” value [2] was “not notably altered” and the “MICs relative to tetracycline” value [2] was “comparable MICs relative to tetracycline”. For the same compound, the “potency against tetracycline resistant isolates” value [2] was “maintained potency”, the “potency by MIC50/MIC90, Gram-positive relative to Gram-negative pathogens” value [2] was “more potent by MIC50/MIC90 against Gram-positive pathogens relative to Gram-negative pathogens” and the “potency relative to tetracycline” value [2] was “more potent”. For the same compound, the MIC50 ([2]; Acinetobacter lwoffii, n=29, read-out: MIC50) was 0.12 µg/mL (≈ 0.227 µM), the MIC90 ([2]; Acinetobacter lwoffii, n=29, read-out: MIC90) was 0.5 µg/mL (≈ 0.944 µM) and the “MICs, fold lower than tetracycline” value ([2]; Acinetobacter lwoffli, S. maltophila, and streptococci) was 2-4 fold. For the same compound, the MIC50 ([2]; Enterobacter cloacae, n=29, read-out: MIC50) was 4 µg/mL (≈ 7.55 µM), the MIC90 ([2]; Enterobacter cloacae, n=29, read-out: MIC90) was 8 µg/mL (≈ 15.1 µM) and the MIC50 ([2]; Escherichia coli, n=40, read-out: MIC50) was 2 µg/mL (≈ 3.78 µM). It also gave an MIC90 ([2]; Escherichia coli, n=40, read-out: MIC90) of 4 µg/mL (≈ 7.55 µM), an MIC50 ([2]; Kiebsielia oxytoca, n=30, read-out: MIC50) of 1 µg/mL (≈ 1.89 µM) and an MIC90 ([2]; Kiebsielia oxytoca, n=30, read-out: MIC90) of 4 µg/mL (≈ 7.55 µM). The MIC50 ([2]; Klebsiella aerogenes, Enterobacter aerogenes, n=30, read-out: MIC50) was 2 µg/mL (≈ 3.78 µM), the MIC90 ([2]; Klebsiella aerogenes, Enterobacter aerogenes, n=30, read-out: MIC90) was 2 µg/mL (≈ 3.78 µM) and the MIC50 ([2]; Klebsiella pneumoniae, Klebsiella pneumonia, n=27, read-out: MIC50) was 4 µg/mL (≈ 7.55 µM). For the same compound, the MIC90 ([2]; Klebsiella pneumoniae, Klebsiella pneumonia, n=27, read-out: MIC90) was 16 µg/mL (≈ 30.2 µM), the MIC50 ([2]; Morganella morganii, n=30, read-out: MIC50) was 8 µg/mL (≈ 15.1 µM) and the MIC90 ([2]; Morganella morganii, n=30, read-out: MIC90) was 16 µg/mL (≈ 30.2 µM). The MIC50 ([2]; Proteus vulgaris, n=29, read-out: MIC50) was 8 µg/mL (≈ 15.1 µM), the MIC90 ([2]; Proteus vulgaris, n=29, read-out: MIC90) was > 16 µg/mL and the MIC50 ([2]; Salmonella species, n=30) was 2 µg/mL (≈ 3.78 µM). It also gave an MIC90 ([2]; Salmonella species, n=30) of 2 µg/mL (≈ 3.78 µM), an MIC50 ([2]; Serratia marcescens, n=30, read-out: MIC50) of 4 µg/mL (≈ 7.55 µM) and an MIC90 ([2]; Serratia marcescens, n=30, read-out: MIC90) of 8 µg/mL (≈ 15.1 µM). It also gave an MIC50 ([2]; Shigella species, n=30, read-out: MIC50) of 0.5 µg/mL (≈ 0.944 µM), an MIC50 ([2]; Staphylococcus aureus, Staphylococcus aureus (MRSA PVL+), n=30, read-out: MIC50) of 0.25 µg/mL (≈ 0.472 µM) and an MIC90 ([2]; Staphylococcus aureus, Staphylococcus aureus (MRSA PVL+), n=30, read-out: MIC90) of 0.25 µg/mL (≈ 0.472 µM). The MIC50 ([2]; Staphylococcus aureus, Staphylococcus aureus MRSA (includes MRSA PVL+ group), n=105, read-out: MIC50) was 0.5 µg/mL (≈ 0.944 µM), the MIC90 ([2]; Staphylococcus aureus, Staphylococcus aureus MRSA (includes MRSA PVL+ group), n=105, read-out: MIC90) was 2 µg/mL (≈ 3.78 µM) and the MIC50 ([2]; Stenotrophomonas maltophilia, n=29, read-out: MIC50) was 0.5 µg/mL (≈ 0.944 µM). The MIC90 ([2]; Stenotrophomonas maltophilia, n=29, read-out: MIC90) was 2 µg/mL (≈ 3.78 µM), the MIC50 ([2]; Streptococcus anginosus, n=20, read-out: MIC50) was 0.06 µg/mL (≈ 0.113 µM) and the MIC90 ([2]; Streptococcus anginosus, n=20, read-out: MIC90) was 0.25 µg/mL (≈ 0.472 µM). It also gave an MIC50 ([2]; Streptococcus intermedius, n=30, read-out: MIC50) of 0.12 µg/mL (≈ 0.227 µM), an MIC90 ([2]; Streptococcus intermedius, n=30, read-out: MIC90) of 0.12 µg/mL (≈ 0.227 µM) and an MIC50 ([2]; Streptococcus mitis, n=29, read-out: MIC50) of 0.12 µg/mL (≈ 0.227 µM). It also gave an MIC90 ([2]; Streptococcus mitis, n=29, read-out: MIC90) of 0.25 µg/mL (≈ 0.472 µM), an MIC50 ([2]; Streptococcus sanguis, n=18, read-out: MIC50) of 0.06 µg/mL (≈ 0.113 µM) and an MIC90 ([2]; Streptococcus sanguis, n=18, read-out: MIC90) of 0.12 µg/mL (≈ 0.227 µM). The “MICs, fold higher than those of tigecycline” value ([2]; evaluated Gram-negative and Gram-positive pathogens, generally) was 2-4 fold, the MIC50 (S. maltophila; TET NS, n=19) was 1 and the MIC90 (S. maltophila; TET NS, n=19) was 4. The MIC50 (S. maltophila; TET S, n=10) was 0.5, the MIC90 (S. maltophila; TET S, n=10) was 0.5 and the spontaneous resistance frequency (S. pneumoniae SP106) was 1×10^−8. For the same compound, the bioavailability [3] was 48.3%, the “MIC EC971 LacZ” value (E. coli DH10B EC971 LacZ) was 2 and the “MICs, fold higher than those of tigecycline” value (Gram-positive pathogens; Gram-positive aerobic pathogens, generally) was 2-4 fold. The “MICs relative to tetracycline” value (Gram-positive pathogens; pneumococci and beta-hemolytic streptococci) was “several-fold lower than those of tetracycline”, the “MICs relative to tetracycline” value (Gram-positive pathogens; staphylococci) was “comparable to those of tetracycline” and the “MIC EC1153 Tet(X)” value [4] was 4. For the same compound, the “MIC EC969 TetM” value (E. coli DH10B EC969 TetM) was 1, the “MIC EC1082 TetA” value [5] was 2 and the “MIC EC1083 TetB” value [6] was 1.
